Target: T1, GmMAN19-1 (Glycine max, UniProt I1NBK5, Q294W)
T1 construct: gene LOC100787923; mature form, signal peptide 1-27 removed; pGEX-4T-1 (EcoRI/XhoI) N-terminal GST fusion from E. coli BL21(DE3), GST cut with thrombin leaving N-terminal Gly-Ser; ~40 kDa; 371 residues in the crystal structure
T1 sequence (I1NBK5 28-410 Q294W): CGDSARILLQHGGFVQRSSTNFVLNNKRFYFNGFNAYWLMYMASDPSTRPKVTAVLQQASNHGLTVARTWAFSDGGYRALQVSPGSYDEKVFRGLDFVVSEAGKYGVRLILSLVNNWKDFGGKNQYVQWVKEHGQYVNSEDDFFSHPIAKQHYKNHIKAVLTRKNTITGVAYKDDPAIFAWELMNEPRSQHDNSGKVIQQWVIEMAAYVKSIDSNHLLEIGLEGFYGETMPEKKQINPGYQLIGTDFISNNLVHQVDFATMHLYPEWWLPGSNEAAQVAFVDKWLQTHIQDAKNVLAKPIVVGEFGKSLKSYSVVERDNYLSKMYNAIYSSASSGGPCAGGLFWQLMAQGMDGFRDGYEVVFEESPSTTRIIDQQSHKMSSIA
Assay: TLC product profile of M5 conversion
Type: biochemical
Details: 1 μM enzyme, 25 mM M5, pH 4.6, 40 °C (optimal assay conditions); hydrolysis and transglycosylation

## OC[C@H]1O[C@@H](O[C@H]2[C@H](O)[C@H](O)[C@H](O[C@H]3[C@H](O)[C@H](O)[C@H](O[C@H]4[C@H](O)[C@H](O)[C@H](O[C@H]5[C@H](O)[C@H](O)C(O)O[C@@H]5CO)O[C@@H]4CO)O[C@@H]3CO)O[C@@H]2CO)[C@@H](O)[C@@H](O)[C@@H]1O (stereo partly shown) [M5, mannopentaose]
  TLC product profile of M5 conversion: the Q267W mutant displayed an altered transglycosylation profile, generating shorter-chain oligosaccharides
